We go through ten molecules from EP2913333A1 (priority 2014, dated 2015).

Where a name gives a salt, the structure may show the parent alone.

One test concerns the target T1, S. aureus DltA (Staphylococcus aureus, UniProt Q2FZW6).
T1 construct: made in house; host or cells: E. coli BL21
T1 sequence (Q2FZW6 1-485): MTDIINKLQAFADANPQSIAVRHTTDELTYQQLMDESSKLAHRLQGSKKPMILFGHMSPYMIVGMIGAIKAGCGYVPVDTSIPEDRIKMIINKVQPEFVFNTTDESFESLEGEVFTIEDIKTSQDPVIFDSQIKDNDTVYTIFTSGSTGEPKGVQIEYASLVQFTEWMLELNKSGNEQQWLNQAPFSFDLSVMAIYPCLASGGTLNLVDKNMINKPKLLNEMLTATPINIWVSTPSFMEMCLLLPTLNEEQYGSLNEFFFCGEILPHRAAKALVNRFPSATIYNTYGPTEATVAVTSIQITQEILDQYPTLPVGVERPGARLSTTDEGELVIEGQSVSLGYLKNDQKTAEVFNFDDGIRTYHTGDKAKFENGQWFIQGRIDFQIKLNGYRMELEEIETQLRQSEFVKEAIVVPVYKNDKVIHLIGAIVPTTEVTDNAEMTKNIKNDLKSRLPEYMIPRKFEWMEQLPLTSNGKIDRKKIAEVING
Put plainly: in vitro DltA activity assay (luminescence, IC50 determination). The class given is biochemical. The protocol: (§1) The effect of the compounds of the invention on DltA enzymes has been based on the measure of their inhibition of DltA activity in vitro. To this end, recombinant proteins DltA were expressed and purified after cloning of the genes of S. aureus, E. faecalis, E. faecium and S. agalactiae as described thereafter. The capacity of the compounds of the invention to inhibit DltA enzymatic activity was assessed using the DltA assays as described below: • The dltA gene was amplified from chromosomal DNA of S. aureus, E. faecalis, E. faecium and S. agalactiae and introduced into E. coli BL21 (Invitrogen, Carlsbad, CA) following manufacturer's instruction. Bacteria were grown at 37°C under aerobic conditions and isopropyl-beta-D-thiogalactopyranoside (IPTG) was added to 0.5-1 mM when OD600 of the bacterial culture had reached 0.5. After a further incubation for 3 hours, cells were harvested by centrifugation. Purification of the recombinant DltA protein was performed by affinity chromatography on nickel-nitrilotriacetic acid (Ni-NTA) column following manufacturer's instructions (Qiagen). Fractions containing recombinant DltA protein were adjusted to 50% glycerol and stored at -20°C until use.
(§2) The binding potency of the inhibitors against DltA enzyme was assessed by IC50 determination in an in vitro DltA activity assay. The assay buffer "AB" contained 50 mM Hepes pH8.0, 10mM MgCl2, 50mM KCI, 0.012% Triton-X100, 10mM DTT and 100nM Myelin-basic protein. The following components were added in a white polystyrene Costar plate up to a final volume of 30µL: 3µL DMSO, or inhibitor dissolved in DMSO and 27µL DltA enzyme in AB. After 30min of preincubation at room temperature, 30µL of Substrates mix in AB were added in each well to a final volume of 60µL. This reaction mixture was then composed of DltA (produced in house from S. aureus, E. faecalis, E. faecium and S. agalactiae), 0.5mM D-Alanine (Sigma), 0.5-5µM ATP (Sigma) and 0.05 u/ml inorganic pyrophosphatase (Sigma) in assay buffer. After typically 1-2hours of incubation at room temperature (conversion rate around 30%), 30µL of the revelation mix were added to a final volume of 90µL, including the following constituents at the respective final concentrations: 10000 u/ml luciferase (Sigma), 30µM D-luciferin (Sigma), 100µM N-acetylcysteamine (Aldrich). Luminescence intensity was immediately measured on a Fluostar Optima (BMG) (excitation 360nm, emission 520nm) and converted into inhibition percentages.
(§3) For compounds interfering with the luminescent signal (quenching), the same experiment without DltA enzyme was performed to allow quenching determination and correction.

In a further test the target is T2, E. feacium DltA (Enterococcus faecium, UniProt Q3XZT7).
T2 sequence (Q3XZT7 1-504): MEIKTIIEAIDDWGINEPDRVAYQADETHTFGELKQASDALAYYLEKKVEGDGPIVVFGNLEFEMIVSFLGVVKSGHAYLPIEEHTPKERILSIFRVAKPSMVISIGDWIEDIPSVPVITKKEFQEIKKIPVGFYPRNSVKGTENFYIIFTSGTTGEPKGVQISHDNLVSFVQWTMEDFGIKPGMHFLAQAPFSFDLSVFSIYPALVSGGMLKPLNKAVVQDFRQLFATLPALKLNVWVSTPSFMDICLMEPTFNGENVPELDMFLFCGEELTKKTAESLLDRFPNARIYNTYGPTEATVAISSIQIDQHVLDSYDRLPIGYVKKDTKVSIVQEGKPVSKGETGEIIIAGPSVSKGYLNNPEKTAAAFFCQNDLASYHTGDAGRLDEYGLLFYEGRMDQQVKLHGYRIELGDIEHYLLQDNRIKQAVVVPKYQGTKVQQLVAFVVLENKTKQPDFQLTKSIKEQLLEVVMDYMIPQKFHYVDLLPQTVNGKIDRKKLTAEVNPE
The test is described as above. The class given is biochemical. The following applies: recombinant DltA, 30min preincubation at room temperature, 0.5mM D-Alanine, 0.5-5µM ATP; read-out: E. feacium DltA IC50. The protocol:
as §1, §2, §3

Another test concerns the target T3, E. feacalis DltA (Enterococcus faecalis, UniProt Q830N0).
T3 sequence (Q830N0 1-506): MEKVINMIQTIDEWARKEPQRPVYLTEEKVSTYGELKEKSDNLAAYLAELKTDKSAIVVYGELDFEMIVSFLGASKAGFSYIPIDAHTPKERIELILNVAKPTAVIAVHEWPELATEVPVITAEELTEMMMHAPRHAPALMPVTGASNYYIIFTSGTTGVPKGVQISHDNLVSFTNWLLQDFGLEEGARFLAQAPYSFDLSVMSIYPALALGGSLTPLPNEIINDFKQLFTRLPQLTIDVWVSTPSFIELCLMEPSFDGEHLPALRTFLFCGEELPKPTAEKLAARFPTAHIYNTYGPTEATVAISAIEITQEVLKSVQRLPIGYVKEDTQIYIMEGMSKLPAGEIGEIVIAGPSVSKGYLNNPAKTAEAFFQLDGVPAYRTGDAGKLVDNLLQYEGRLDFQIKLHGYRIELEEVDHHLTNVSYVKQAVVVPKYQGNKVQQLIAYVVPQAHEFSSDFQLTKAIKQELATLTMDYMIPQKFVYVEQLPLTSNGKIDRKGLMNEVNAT
Put plainly: biochemical. The procedure:
as §1, with “To” for “The effect of the compounds of the invention on DltA enzymes has been based on the measure of their inhibition of DltA activity in vitro. To”
as §2, §3

In another test the target is T4, S. Agalactiae DltA (Streptococcus agalactiae serotype III, UniProt Q8VM67).
T4 sequence (Q8VM67 1-511): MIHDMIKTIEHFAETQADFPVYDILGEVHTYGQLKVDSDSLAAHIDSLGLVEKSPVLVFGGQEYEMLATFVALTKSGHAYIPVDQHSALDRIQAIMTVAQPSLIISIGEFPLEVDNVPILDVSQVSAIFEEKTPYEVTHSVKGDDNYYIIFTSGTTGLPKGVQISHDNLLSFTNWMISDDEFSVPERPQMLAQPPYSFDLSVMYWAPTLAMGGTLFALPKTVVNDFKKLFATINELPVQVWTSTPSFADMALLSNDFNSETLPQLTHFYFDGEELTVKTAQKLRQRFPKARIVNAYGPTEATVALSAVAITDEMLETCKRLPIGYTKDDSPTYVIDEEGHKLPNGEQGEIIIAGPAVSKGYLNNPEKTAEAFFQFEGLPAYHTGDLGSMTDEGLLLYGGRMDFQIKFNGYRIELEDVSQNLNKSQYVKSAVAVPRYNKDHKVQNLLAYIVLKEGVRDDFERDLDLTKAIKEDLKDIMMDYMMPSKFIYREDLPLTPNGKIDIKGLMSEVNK
Put plainly: biochemical. The protocol:
as §1, with “To” for “The effect of the compounds of the invention on DltA enzymes has been based on the measure of their inhibition of DltA activity in vitro. To”
as §2, §3

In the case of `O=c1[nH]cnc2c(-c3ccc4c(c3)ncn4C3CCCCC3)cn(C3CCCC(O)C3)c12` (racemic) [Example 70A, 7-(1-Cyclohexyl-1H-benzimidazol-5-yl)-5-(3-hydroxy-cyclohexyl)-3,5-dihydro-pyrrolo[3,2-d]pyrimidin-4-one], the IC50 was found to be 660 nM against S. aureus DltA, 920 nM on E. feacium DltA, 570 nM on E. feacalis DltA and 2400 nM against S. Agalactiae DltA.

Take `O=c1[nH]cnc2c(-c3ccc4c(c3)ncn4C3CCCCC3)cn(C3CCC(O)C3)c12` (racemic) [Example 71A, 7-(1-Cyclohexyl-1H-benzimidazol-5-yl)-5-(3-hydroxy-cyclopentyl)-3,5-dihydro-pyrrolo[3,2-d]pyrimidin-4-one]: the IC50 was 360 nM against S. aureus DltA, 890 nM on E. feacium DltA, 360 nM against E. feacalis DltA and 2700 nM on S. Agalactiae DltA.

Take `O=c1[nH]cnc2c(-c3ccc4c(c3)ncn4C3CCCCC3)sc(N3CC[C@H](CO)C3)c12` [Example 7, 7-(1-Cyclohexyl-1H-benzoimidazol-5-yl)-5-((S)-3-hydroxymethyl-pyrrolidin-1-yl)-3H-thieno[3,4-d]pyrimidin-4-one]: the IC50 is 70 nM against S. aureus DltA, 120 nM at E. feacium DltA, 37 nM against E. feacalis DltA and 3200 nM at S. Agalactiae DltA.

In the case of `O=c1[nH]cnc2c(-c3ccc4c(c3)ncn4C3CCCCC3)sc(N3CCC(CCO)C3)c12` (centres unmarked) [Example 11, 7-(1-Cyclohexyl-1H-benzoimidazol-5-yl)-5-[3-(2-hydroxy-ethyl)-pyrrolidin-1-yl]-3H-thieno[3,4-d]pyrimidin-4-one], the IC50 against S. aureus DltA was determined as 140 nM; on E. feacium DltA, 190 nM; at E. feacalis DltA, 120 nM; on S. Agalactiae DltA it was 5400 nM.

For the molecule `O=c1[nH]cnc2c(-c3ccc4c(c3)ncn4C3CCCCC3)sc(N3CCC(CO)(CO)C3)c12` [Example 13, 5-(3,3-Bis-hydroxymethyl-pyrrolidin-1-yl)-7-(1-cyclohexyl-1H-benzoimidazol-5-yl)-3H-thieno[3,4-d]pyrimidin-4-one], the half-maximal inhibitory concentration (IC50) against S. aureus DltA was 44 nM; on E. feacium DltA, 140 nM; against E. feacalis DltA it was 41 nM; on S. Agalactiae DltA it was 980 nM.

On to `O=c1[nH]cnc2c(-c3ccc4c(c3)ncn4C3CCCCC3)sc(N3CC4C(O)C4C3)c12` (centres unmarked) [Example 17, 7-(1-Cyclohexyl-1H-benzoimidazol-5-yl)-5-(6-hydroxy-3-aza-bicyclo[3.1.0]hex-3-yl)-3H-thieno[3,4-d]pyrimidin-4-one], for which the IC50 at S. aureus DltA is 220 nM; at E. feacium DltA, 190 nM; against E. feacalis DltA it was 85 nM; at S. Agalactiae DltA, 2200 nM.

Take `O=c1[nH]cnc2c(-c3ccc4c(c3)ncn4C3CCCCC3)sc(N3CC4CNCC4C3)c12` (centres unmarked) [Example 25, 7-(1-Cyclohexyl-1H-benzoimidazol-5-yl)-5-(hexahydro-pyrrolo[3,4-c]pyrrol-2-yl)-3H-thieno[3,4-d]pyrimidin-4-one hydrochloride]: the half-inhibitory concentration (IC50) against S. aureus DltA was 39 nM; at E. feacium DltA, 88 nM; at E. feacalis DltA, 22 nM; at S. Agalactiae DltA, 630 nM.

Consider `O=c1[nH]cnc2c(-c3ccc4c(c3)ncn4C3CCCCC3)sc(N3CCNCC3)c12` [Example 28, 7-(1-cyclohexyl-1H-benzoimidazol-5-yl)-5-piperazin-1-yl-3H-thieno[3,4-d]pyrimidin-4-one hydrochloride], for which the IC50 is 150 nM on S. aureus DltA, 160 nM on E. feacium DltA, 48 nM on E. feacalis DltA and 1200 nM against S. Agalactiae DltA.

Take `O=c1[nH]cnc2c(-c3ccc4c(c3)ncn4C3CCCCC3)sc(N3C[C@@H]4[C@@H](CO)[C@@H]4C3)c12` [Example 30, 7-(1-Cyclohexyl-1H-benzimidazol-5-yl)-5-((1R,5S,6R)-6-hydroxymethyl-3-aza-bicyclo[3.1.0]hex-3-yl)-3H-thieno[3,4-d]pyrimidin-4-one]: the IC50 at S. aureus DltA came to 220 nM; on E. feacium DltA it was 320 nM; against E. feacalis DltA, 160 nM; against S. Agalactiae DltA, 2000 nM.

Take `CC1CCCC(n2cnc3cc(-c4sc(N5CC[C@H](CO)C5)c5c(=O)[nH]cnc45)ccc32)C1` (some centres unmarked) [Example 48]: the IC50 came to 68 nM on S. aureus DltA and 110 nM at E. feacium DltA.

What is called IC50 is the concentration needed to halve the response being measured.
